Source: patent publication US12390451B2, “Small molecule inhibitor of the JAK family of kinases” (Janssen Pharmaceutica NV, priority 2021, dated 2025)
Like-named read-outs stand apart in the source and are kept apart here.

Assays:
[1] = Serum and colonic concentrations in IL-12/IL-18 studies S-1 and S-2; assay type: in vivo, C57BL/6 mice; conditions: mice, mean±SEM; for concentration at 4 h / concentration at 30 min: C57BL/6, mouse, po; for concentration at 30 min: read-out: Serum 30 min post dosing
Experimental: C57BL/6 mice (6 to 8 weeks old) were randomized by weight and assigned to various treatment groups for each of two studies. Mice were challenged intraperitoneally with a combination of IL-12 (250 ng) and IL-18 (1 μg). To examine the effect of compound of Formula I on IL-12/IL-18-induced pSTAT-3 response, groups of mice were orally dosed with compound of Formula I 1 hour prior to IL-12/IL-18 challenge. Three hours after IL-12/IL-18 challenge, mice were euthanized with CO2 asphyxiation, blood was collected via cardiocentesis for PK analysis, and colon tissues were collected for measuring pSTAT-3 response and drug levels. Mice dosed orally with 20% 2-hydroxypropyl-β-cyclodextrin (HP-β-CD) were used as vehicle controls. Two independent studies (S-1 and S-2) were conducted to examine the effect of compound of Formula I on IL-12/IL-18-induced colonic pSTAT-3 response in mice. […] Serum levels were measured at 30 minutes and 4 hours (terminal) after dosing. […] Colon drug levels were measured 4 hours after dosing. […] Colonic exposure of compound of Formula I increased in a dose-dependent fashion. At 25 mg/kg dose, colonic exposure of compound of Formula I was 30814.5±5552.5 ng/g and 18256.5±4118.8 ng/g tissue. […] Oral dosing of compound of Formula I in mice resulted, as shown in other studies, in minimum systemic exposure and lack of consistent dose-dependent pharmacodynamic responses in the blood.
Data are presented as mean±SEM; N=3-7/group. BLOQ, below limit of quantification; min, minutes; h, hour(s).
Data are presented as mean±SEM; N=3 to 7/group. BLOQ, below limit of quantification; min, minutes; h, hour(s).

JAK2/JAK2 = molecular target: T1, JAK2/JAK2 (Homo sapiens, UniProt O60674); assay: TPO-induced pSTAT-3 in human whole blood; assay type: cell-based; conditions: mean
T1 construct: endogenous in cells; host or cells: human whole blood
T1 sequence (O60674 whole entry): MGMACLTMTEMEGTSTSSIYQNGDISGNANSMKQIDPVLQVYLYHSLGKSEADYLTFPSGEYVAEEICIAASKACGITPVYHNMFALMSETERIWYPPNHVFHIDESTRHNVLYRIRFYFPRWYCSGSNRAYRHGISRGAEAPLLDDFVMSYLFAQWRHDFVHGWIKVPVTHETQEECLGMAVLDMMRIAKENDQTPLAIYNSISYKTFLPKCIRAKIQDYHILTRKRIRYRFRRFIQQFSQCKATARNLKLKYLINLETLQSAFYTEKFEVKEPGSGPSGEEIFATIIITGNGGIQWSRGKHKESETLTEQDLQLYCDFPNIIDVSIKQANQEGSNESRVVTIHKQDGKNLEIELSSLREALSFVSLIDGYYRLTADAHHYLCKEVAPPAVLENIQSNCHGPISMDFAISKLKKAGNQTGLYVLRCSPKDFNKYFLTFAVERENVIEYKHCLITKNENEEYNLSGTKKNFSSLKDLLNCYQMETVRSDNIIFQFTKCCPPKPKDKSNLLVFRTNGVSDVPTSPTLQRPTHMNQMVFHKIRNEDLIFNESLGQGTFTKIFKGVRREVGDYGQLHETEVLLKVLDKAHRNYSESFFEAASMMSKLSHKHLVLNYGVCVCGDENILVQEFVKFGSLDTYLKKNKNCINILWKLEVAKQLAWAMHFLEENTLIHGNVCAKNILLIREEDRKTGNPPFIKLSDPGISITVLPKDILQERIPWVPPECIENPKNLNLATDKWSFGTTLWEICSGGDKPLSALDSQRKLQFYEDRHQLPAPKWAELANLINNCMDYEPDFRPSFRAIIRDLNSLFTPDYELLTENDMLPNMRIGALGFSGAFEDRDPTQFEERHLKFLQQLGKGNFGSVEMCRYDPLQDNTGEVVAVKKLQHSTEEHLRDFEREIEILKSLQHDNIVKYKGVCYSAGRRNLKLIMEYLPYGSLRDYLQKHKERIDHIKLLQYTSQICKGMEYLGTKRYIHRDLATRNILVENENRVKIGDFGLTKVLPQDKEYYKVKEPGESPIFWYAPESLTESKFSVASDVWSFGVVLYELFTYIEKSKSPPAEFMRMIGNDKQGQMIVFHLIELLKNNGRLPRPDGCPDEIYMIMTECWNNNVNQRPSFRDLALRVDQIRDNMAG
T1 sequence (P40238 26-635 partner): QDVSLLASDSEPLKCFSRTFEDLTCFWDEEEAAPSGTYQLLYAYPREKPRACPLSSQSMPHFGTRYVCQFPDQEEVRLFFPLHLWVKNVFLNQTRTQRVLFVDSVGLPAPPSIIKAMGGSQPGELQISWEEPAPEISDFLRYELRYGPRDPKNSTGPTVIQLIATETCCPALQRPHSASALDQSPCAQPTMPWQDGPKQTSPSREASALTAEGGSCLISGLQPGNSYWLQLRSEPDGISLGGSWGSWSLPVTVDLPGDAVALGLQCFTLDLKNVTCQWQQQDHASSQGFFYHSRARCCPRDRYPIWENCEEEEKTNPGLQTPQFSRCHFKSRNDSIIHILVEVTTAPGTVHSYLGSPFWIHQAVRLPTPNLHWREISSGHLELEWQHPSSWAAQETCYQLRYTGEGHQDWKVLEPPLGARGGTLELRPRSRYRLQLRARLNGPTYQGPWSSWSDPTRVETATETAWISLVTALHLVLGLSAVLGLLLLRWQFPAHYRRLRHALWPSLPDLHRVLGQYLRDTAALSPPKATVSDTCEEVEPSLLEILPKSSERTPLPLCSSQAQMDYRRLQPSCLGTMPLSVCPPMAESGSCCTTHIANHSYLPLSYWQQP
Experimental: Compound of Formula I presents low levels of systemic exposure after oral administration. To understand the relationship between systemic exposure and target engagement in human studies, the inhibition of cytokine-induced pSTAT-3 in human whole blood was measured with such compound. In human whole blood, compound of Formula I in a concentration-dependent manner inhibited the JAK1, JAK2, JAK3, and Tyk2 homo- and heterodimers downstream of IFNα (JAK1/Tyk2), thrombopoietin (TPO) (JAK2/JAK2), and IL-21 (JAK1/JAK3) signaling.

## CC(C)(O)CNC(=O)Cc1nc2cnc3[nH]ccc3c2n1[C@H]1CC[C@H](CC#N)CC1 [Compound of Formula I, 2-(1-((1r,4r)-4-(Cyanomethyl)cyclohexyl)-1,6-dihydroimidazo[4,5-d]pyrrolo[2,3-b]pyridin-2-yl)-N-(2-hydroxy-2-methylpropyl)acetamide]
[1]; colon, 10 mg/kg, S-1, oral 10 mg/kg, read-out: Colon 4 h post dosing
  concentration at 4 h: 6600 ± 787 ng/g
[1]; colon, 10 mg/kg, S-2, oral 10 mg/kg, read-out: Colon 4 h post dosing
  concentration at 4 h: 10100 ± 1300 ng/g
[1]; colon, 25 mg/kg, S-1, oral 25 mg/kg, read-out: Colon 4 h post dosing
  concentration at 4 h: 30800 ± 5550 ng/g
[1]; colon, 25 mg/kg, S-2, oral 25 mg/kg, read-out: Colon 4 h post dosing
  concentration at 4 h: 18300 ± 4120 ng/g
[1]; colon, 50 mg/kg, S-1, oral 50 mg/kg, read-out: Colon 4 h post dosing
  concentration at 4 h: 59600 ± 11300 ng/g
[1]; colon, 50 mg/kg, S-2, oral 50 mg/kg, read-out: Colon 4 h post dosing
  concentration at 4 h: 35600 ± 5560 ng/g
[1]; serum, 10 mg/kg, S-1, oral 10 mg/kg
  concentration at 30 min: 7.4 ± 1.4 nM
[1]; serum, 10 mg/kg, S-2, oral 10 mg/kg
  concentration at 30 min: 7 ± 0.7 nM
[1]; serum, 25 mg/kg, S-1, oral 25 mg/kg
  concentration at 30 min: 21.8 ± 5.5 nM
[1]; serum, 25 mg/kg, S-1, oral 25 mg/kg, read-out: Serum 4 h post dosing
  concentration at 4 h: 25 ± 20.3 nM
[1]; serum, 25 mg/kg, S-2, oral 25 mg/kg
  concentration at 30 min: 70.5 ± 60.4 nM
[1]; serum, 25 mg/kg, S-2, oral 25 mg/kg, read-out: Serum 4 h post dosing
  concentration at 4 h: 45.1 ± 24 nM
[1]; serum, 50 mg/kg, S-1, oral 50 mg/kg
  concentration at 30 min: 122 ± 87.2 nM
[1]; serum, 50 mg/kg, S-1, oral 50 mg/kg, read-out: Serum 4 h post dosing
  concentration at 4 h: 19.7 ± 8 nM
[1]; serum, 50 mg/kg, S-2, oral 50 mg/kg
  concentration at 30 min: 38.8 ± 7.4 nM
[1]; serum, 50 mg/kg, S-2, oral 50 mg/kg, read-out: Serum 4 h post dosing
  concentration at 4 h: 131 ± 108 nM
[1]; S-1, oral 10 mg/kg
  Serum 4 h post dosing: BLOQ
[1]; S-1, oral 10 mg/kg, 10 mg/kg
  Serum 30 min post dosing: 7.4 ± 1.4 nM
[1]; S-1, oral 25 mg/kg, 25 mg/kg
  Colon 4 h post dosing: 30814.5 ± 5552.5 ng/g
  Serum 30 min post dosing: 21.8 ± 5.5 nM
[1]; S-1, oral 50 mg/kg, 50 mg/kg
  Serum 30 min post dosing: 121.7 ± 87.2 nM
[1]; S-2, oral 10 mg/kg
  Serum 4 h post dosing: BLOQ
[1]; S-2, oral 10 mg/kg, 10 mg/kg
  Serum 30 min post dosing: 7.0 ± 0.7 nM
[1]; S-2, oral 25 mg/kg, 25 mg/kg
  Colon 4 h post dosing: 18256.5 ± 4118.8 ng/g
  Serum 30 min post dosing: 70.5 ± 60.4 nM
[1]; S-2, oral 50 mg/kg, 50 mg/kg
  Serum 30 min post dosing: 38.8 ± 7.4 nM
JAK2/JAK2
  IC50: 490 nM
